Source: the supplement of paper PMC11061612

Tests used:
Assay in all cases: Bliss excess, mean over the matrix (fraction); higher = more synergy
42-MG-BA (Glioblastoma) = tested on: 42-MG-BA (Glioblastoma)
In short: (§1)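 Cell lines grown in DMEM/F12 or RPMI with 10% FBS were plated in 1536-well plates and held 24 hours at 37°C, 5% CO2 before 72 hours of exposure to two-drug dose matrices, with DMSO typically at 0.2%. CellTiter-Glo 2.0 luminescence gave viability, which was converted to inhibition. Vehicle wells were set to 0 and blank wells to 1. Combination Emax is the second-highest inhibition in the matrix, and Bliss excess is the observed combination effect minus the expected EA + EB − EA·EB, where EA and EB are the single-agent effects.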

[1] = tested on: B-CPAP (Thyroid Gland Carcinoma)
In short: as §1

[2] = tested on: DoTc2-4510 (Cervical Carcinoma)
In short: as §1

[3] = tested on: EC-GI-10 (Esophageal Squamous Cell Carcinoma)
In short: as §1

ES4 (Ewing's Sarcoma) = tested on: ES4 (Ewing's Sarcoma)
In short: as §1

[4] = tested on: HO-1-N-1 (Oral Cavity Carcinoma)
In short: as §1

KELLY (Neuroblastoma) = tested on: KELLY (Neuroblastoma)
In short: as §1

[5] = tested on: KURAMOCHI (Ovarian Carcinoma)
In short: as §1

[6] = tested on: KYSE-520 (Esophageal Squamous Cell Carcinoma)
In short: as §1

[7] = tested on: LS-180 (Colorectal Carcinoma)
In short: as §1

[8] = tested on: MDA-MB-361 (Breast Carcinoma)
In short: as §1

[9] = tested on: MFE-296 (Endometrial Carcinoma)
In short: as §1

NB10 (Neuroblastoma) = tested on: NB10 (Neuroblastoma)
In short: as §1

[10] = tested on: NCI-H82 (Small Cell Lung Carcinoma)
In short: as §1

NOS-1 (Osteosarcoma) = tested on: NOS-1 (Osteosarcoma)
In short: as §1

[11] = tested on: OVCA420 (Ovarian Carcinoma)
In short: as §1

[12] = tested on: RC-K8 (B-Cell Non-Hodgkin's Lymphoma)
In short: as §1

[13] = tested on: SK-ES-1 (Ewing's Sarcoma)
In short: as §1

[14] = tested on: TE-15 (Esophageal Squamous Cell Carcinoma)
In short: as §1

[15] = tested on: TE-9 (Esophageal Squamous Cell Carcinoma)
In short: as §1

Compound | Bliss excess (42-MG-BA (Glioblastoma)) | Bliss excess [1] | Bliss excess [2] | Bliss excess [3] | Bliss excess (ES4 (Ewing's Sarcoma)) | Bliss excess [4] | Bliss excess (KELLY (Neuroblastoma)) | Bliss excess [5] | Bliss excess [6] | Bliss excess [7] | Bliss excess [8] | Bliss excess [9] | Bliss excess (NB10 (Neuroblastoma)) | Bliss excess [10] | Bliss excess (NOS-1 (Osteosarcoma)) | Bliss excess [11] | Bliss excess [12] | Bliss excess [13] | Bliss excess [14] | Bliss excess [15]
CC1(C)CCC(CN2CCN(c3ccc(C(=O)NS(=O)(=O)c4ccc(NCC5CCOCC5)c([N+](=O)[O-])c4)c(Oc4cnc5[nH]ccc5c4)c3)CC2)=C(c2ccc(Cl)cc2)C1 [Venetoclax] + Cn1cnc2c(F)c(Nc3ccc(Br)cc3Cl)c(C(=O)NOCCO)cc21 [Selumetinib] (first compound max 1 µM, 7x7, partner max 3 µM) | -0.0279 | -0.0446 | -0.0414 | -0.0293 | -0.0412 | -0.0037 | 0.009 | -0.0333 | -0.0836 | 0.0538 | -0.0299 | -0.0297 | 0.0021 | -0.0125 | -0.0082 | -0.045 | -0.0112 | 0.0234 | -0.0268 | -0.027
CC(=O)c1c(C)c2cnc(Nc3ccc(N4CCNCC4)cn3)nc2n(C2CCCC2)c1=O [Palbociclib] + CC1(C)CCC(CN2CCN(c3ccc(C(=O)NS(=O)(=O)c4ccc(NCC5CCOCC5)c([N+](=O)[O-])c4)c(Oc4cnc5[nH]ccc5c4)c3)CC2)=C(c2ccc(Cl)cc2)C1 [Venetoclax] (first compound max 10 µM, 7x7, partner max 1 µM) | -0.0093 | 0.0002 | -0.058 | -0.0031 | -0.0334 | -0.0322 | 0.0358 | -0.0418 | -0.0442 | -0.0124 | -0.0751 | -0.0262 | 0.0062 | -0.0648 | 0.0157 | -0.0468 | -0.0904 | 0.0758 | -0.0257 | -0.035
Cc1c2c(nn1C)CSCc1cc(n(C)n1)CSc1cc(c3ccccc3c1)OCCCc1c(C(=O)O)n(C)c3c-2c(Cl)ccc13 [AZD5991] + C[C@@H](Nc1cc(F)cc(F)c1)c1cc(C(=O)N(C)C)cc2c(=O)cc(N3CCOCC3)oc12 [AZD8186] (first compound max 1 µM, 7x7, partner max 3 µM) | -0.0084 | -0.0409 | 0.0486 | 0.0109 | -0.0286 | 0.0943 | 0.0259 | 0.039 | -0.0258 | -0.0189 | -0.0102 | 0.0197 | -0.0444 | -0.0121 | 0.023 | -0.0274 | -0.0418 | 0.023 | -0.0254 | -0.0274
COc1nnc2ccc(N3CCC(c4ccc(OCCN5CCN(C)C(=O)[C@H]5C)cc4)CC3)nn12 [AZD5153] + Cc1c2c(nn1C)CSCc1cc(n(C)n1)CSc1cc(c3ccccc3c1)OCCCc1c(C(=O)O)n(C)c3c-2c(Cl)ccc13 [AZD5991] (first compound max 1 µM, 7x7, partner max 1 µM) | 0.0576 | -0.0224 | -0.0358 | 0.0527 | -0.0665 | 0.0068 | 0.0357 | 0.0332 | -0.0457 | -0.0279 | -0.0406 | 0.028 | -0.0446 | -0.0659 | 0.0399 | -0.0933 | -0.0446 | 0.0048 | -0.0124 | -0.007
CC1(C)CCC(CN2CCN(c3ccc(C(=O)NS(=O)(=O)c4ccc(NCC5CCOCC5)c([N+](=O)[O-])c4)c(Oc4cnc5[nH]ccc5c4)c3)CC2)=C(c2ccc(Cl)cc2)C1 [Venetoclax] + C[C@@H](Nc1cc(F)cc(F)c1)c1cc(C(=O)N(C)C)cc2c(=O)cc(N3CCOCC3)oc12 [AZD8186] (first compound max 1 µM, 7x7, partner max 3 µM) | -0.0591 | -0.0151 | -0.0078 | -0.0139 | -0.0554 | -0.009 | 0.0068 | -0.0467 | -0.06 | -0.0286 | -0.0151 | -0.0248 | -0.0084 | -0.0452 | 0.018 | -0.0285 | 0.018 | 0.0802 | -0.0307 | -0.0185
CC1(C)CCC(CN2CCN(c3ccc(C(=O)NS(=O)(=O)c4ccc(NCC5CCOCC5)c([N+](=O)[O-])c4)c(Oc4cnc5[nH]ccc5c4)c3)CC2)=C(c2ccc(Cl)cc2)C1 [Venetoclax] + Cc1cc2ncnn2cc1Nc1ncc2c(n1)n(C1CCOCC1)c(=O)n2C [AZD7648] (first compound max 1 µM, 7x7, partner max 10 µM) | -0.0013 | -0.0146 | -0.0413 | 0.038 | -0.0452 | 0.0318 | -0.0064 | -0.0605 | -0.0284 | -0.0061 | 0.0398 | -0.0065 | 0.0053 | -0.0227 | -0.0504 | -0.0089 | 0.0156 | 0.0203 | -0.0519 | -0.0175
Cc1nc(Nc2ncc(C(=O)Nc3c(C)cccc3Cl)s2)cc(N2CCN(CCO)CC2)n1 [Dasatinib] + CC(=O)Nc1cccc(-n2c(=O)n(C3CC3)c(=O)c3c(Nc4ccc(I)cc4F)n(C)c(=O)c(C)c32)c1 [Trametinib] (first compound max 2 µM, 7x7, partner max 1 µM) | -0.023 | -0.0158 | -0.0338 | -0.0871 | -0.0951 | 0.0676 | 0.0824 | 0.0706 | -0.0902 | 0.0883 | -0.0072 | -0.0328 | -0.0024 | -0.0149 | 0.0688 | 0.025 | -0.0338 | -0.0256 | -0.0414 | -0.0104
NC1(C(=O)N[C@@H](CCO)c2ccc(Cl)cc2)CCN(c2ncnc3[nH]ccc23)CC1 [Capivasertib] + C[C@@H]1COCCN1C2=NC(=NC(=C2)C3(CC3)[S@](=N)(=O)C)C4=C5C=CNC5=NC=C4 [AZD6738] (first compound max 10 µM, 7x7, partner max 10 µM) | -0.0514 | -0.0465 | -0.0192 | -0.0804 | -0.0919 | -0.0027 | 0.0028 | -0.0376 | -0.0371 | -0.159 | -0.11 | -0.0508 | -0.0364 | -0.0279 | -0.0057 | -0.0468 | -0.0856 | -0.0831 | -0.0494 | -0.0415
Cc1c2c(nn1C)CSCc1cc(n(C)n1)CSc1cc(c3ccccc3c1)OCCCc1c(C(=O)O)n(C)c3c-2c(Cl)ccc13 [AZD5991] + CN(C)CCCOc1ccc(-c2ccc3ncc4c(c3c2)n(C2CCOCC2)c(=O)n4C)cn1 [AZD0156] (first compound max 1 µM, 7x7, partner max 1 µM) | 0.0259 | 0.0094 | 0.0422 | 0.0487 | 0.0042 | -0.0044 | -0.0469 | -0.0666 | 0.0045 | 0.0054 | -0.016 | 0.0092 | 0.0269 | -0.0207 | -0.0581 | -0.0333 | 0.0237 | -0.004 | 0.0128 | -0.0529
COc1nnc2ccc(N3CCC(c4ccc(OCCN5CCN(C)C(=O)[C@H]5C)cc4)CC3)nn12 [AZD5153] + CCN(CCO)CCCOc1ccc2c(Nc3cc(CC(=O)Nc4cccc(F)c4)[nH]n3)ncnc2c1 [AZD2811] (first compound max 1 µM, 7x7, partner max 1 µM) | -0.0476 | -0.0367 | -0.0067 | -0.0142 | 0.0055 | -0.0014 | -0.0406 | -0.0149 | -0.0709 | -0.111 | -0.0448 | -0.0264 | -0.0289 | -0.064 | -0.0391 | -0.0547 | 0.0154 | -0.0695 | -0.0535 | -0.0096
Cc1c2c(nn1C)CSCc1cc(n(C)n1)CSc1cc(c3ccccc3c1)OCCCc1c(C(=O)O)n(C)c3c-2c(Cl)ccc13 [AZD5991] + CC1(C)CCC(CN2CCN(c3ccc(C(=O)NS(=O)(=O)c4ccc(NCC5CCOCC5)c([N+](=O)[O-])c4)c(Oc4cnc5[nH]ccc5c4)c3)CC2)=C(c2ccc(Cl)cc2)C1 [Venetoclax] (first compound max 1 µM, 7x7, partner max 1 µM) | -0.025 | -0.0306 | 0.0024 | -0.0024 | -0.0286 | 0.0055 | 0.249 | 0.0511 | -0.0306 | 0.0019 | 0.0194 | -0.002 | 0.0065 | -0.036 | 0.0241 | -0.0045 | -0.0142 | 0.167 | -0.05 | 0.0041
Cc1c2c(nn1C)CSCc1cc(n(C)n1)CSc1cc(c3ccccc3c1)OCCCc1c(C(=O)O)n(C)c3c-2c(Cl)ccc13 [AZD5991] + Cn1cnc2c(F)c(Nc3ccc(Br)cc3Cl)c(C(=O)NOCCO)cc21 [Selumetinib] (first compound max 1 µM, 7x7, partner max 3 µM) | -0.03 | -0.0219 | 0.0343 | 0.051 | -0.0173 | 0.0303 | 0.0281 | 0.031 | -0.0208 | 0.0454 | -0.0168 | 0.0234 | 0.0122 | -0.0406 | 0.0887 | 0.0316 | 0.0127 | -0.0186 | 0.0114 | -0.0097
CS(=O)(=O)CCNCc1ccc(-c2ccc3ncnc(Nc4ccc(OCc5cccc(F)c5)c(Cl)c4)c3c2)o1 [Lapatinib] + C[C@@H](Oc1cc(-c2cnn(C3CCNCC3)c2)cnc1N)c1c(Cl)ccc(F)c1Cl [Crizotinib] (first compound max 10 µM, 7x7, partner max 10 µM) | -0.0709 | -0.0393 | -0.0321 | -0.0379 | -0.0261 | -0.0493 | -0.03 | -0.0794 | -0.0352 | 0.0173 | 0.0278 | -0.0288 | -0.0771 | -0.0273 | -0.0114 | 0.0287 | -0.0433 | -0.0015 | -0.0148 | -0.0194
CC(=O)c1c(C)c2cnc(Nc3ccc(N4CCNCC4)cn3)nc2n(C2CCCC2)c1=O [Palbociclib] + Cn1cnc2c(F)c(Nc3ccc(Br)cc3Cl)c(C(=O)NOCCO)cc21 [Selumetinib] (first compound max 10 µM, 7x7, partner max 10 µM) | -0.0776 | 0.0321 | -0.0384 | -0.0407 | -0.0359 | 0.0927 | 0.09 | 0.0078 | 0.0617 | 0.0098 | -0.0238 | -0.0574 | 0.0998 | -0.0216 | -0.0152 | -0.0157 | -0.0203 | -0.0161 | 0.0179 | 0.0099
